Among the test systems are KM-20L2; DMS-114; M19-MEL; DLD-1; HOP-18; DMS-273; LXFL 529; RXF 631; XF498.
Test in all cases: DTP human tumour cell line panel, 48 h

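Cells were grown in 96-well plates and exposed to each compound for 48 hours at five concentrations; endpoints were interpolated linearly between bracketing concentrations, or set to the highest concentration if not reached. Here, GI50 denotes the concentration required for 50% inhibition of growth.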 The source made the active and inactive calls. Cut-off read from the data, not from the text of the source: active = GI50 up to about 1.1 µM and inactive = higher.

In general, GI50 refers to the concentration that inhibits growth by half.

Regarding `Cc1nc(-n2nc(-c3ccccc3)cc2-c2ccccc2)sc1C(=O)/C=C/c1ccc(Cl)cc1`, the GI50 was 24.4 µM (inactive) with KM-20L2; 11.4 µM (inactive) with DMS-114; 18.4 µM (inactive) with M19-MEL; 13.2 µM (inactive) in the assay with DLD-1; 14.4 µM (inactive) in the assay on HOP-18; 28.5 µM (inactive) in the assay on DMS-273.

As for `O=C(c1ccc(Cl)cc1)c1cnc(Nc2ccccc2Cl)s1`, the GI50 was 24.7 µM (inactive) in the assay on DMS-114; 34.1 µM (inactive) in the assay with M19-MEL; 28.5 µM (inactive) in the assay on DLD-1; 20.1 µM (inactive) in the assay on DMS-273; 16.3 µM (inactive) in the assay with LXFL 529.

Regarding `CCOC(=O)C(=O)C1C(=O)Nc2ccccc21` (centres undefined), the GI50 in the assay on RXF 631, in the assay on DMS-114, in the assay with M19-MEL, in the assay with XF498, in the assay with DLD-1 and with DMS-273 was > 100 µM (inactive) in each case. For the same compound, the GI50 in the assay on LXFL 529 is > 100 µM (inactive).

On to `COc1ccc(CC2NCCc3cc(OC)c(OC)cc32)cc1Br` (centres undefined), for which the GI50 is 25.8 µM (inactive) in the assay on KM-20L2; 17.6 µM (inactive) in the assay on DMS-114; 20.7 µM (inactive) with M19-MEL; 11.9 µM (inactive) in the assay on XF498; 66.7 µM (inactive) in the assay on DLD-1; 23.1 µM (inactive) in the assay with HOP-18. Also, the GI50 was 22.4 µM (inactive) in the assay on DMS-273 and 26.9 µM (inactive) with LXFL 529.

As for `Nc1nc(F)nc2c1ncn2C1OC(COP(=O)(O)O)C(O)C1O` (centres undefined), the GI50 in the assay with KM-20L2 is 105 µM (inactive); in the assay with DMS-114, 10.7 µM (inactive); in the assay on M19-MEL, 46.1 µM (inactive); with XF498, 66.8 µM (inactive); in the assay with DLD-1 it was 101 µM (inactive); with HOP-18, 63.2 µM (inactive). Besides, the GI50 with DMS-273 is 225 µM (inactive).

For `CN(C)[C@H]1CC[C@H]2[C@@H]3CCC4C[C@@H](NC(=O)NC(Cc5ccccc5)c5nccs5)CC[C@]4(C)[C@H]3CC[C@]12C` (some centres undefined), the GI50 in the assay with RXF 631 was 1.92 µM (inactive); with KM-20L2, 1.19 µM (inactive); in the assay with DMS-114 it was 1.79 µM (inactive); with M19-MEL it was 1.85 µM (inactive); in the assay on XF498, 1.2 µM (inactive); in the assay on DLD-1, 1.74 µM (inactive). Moreover, the results for the GI50 in the assay with DMS-273 and in the assay with LXFL 529 were 1.94 µM (inactive) and 0.488 µM (active), respectively.

On to `CCCCCC1CC=CC(NC(=O)OCc2ccccc2)C1/C=C/CCCC1OCCO1` (centres undefined), for which the GI50 is 48.3 µM (inactive) with RXF 631; > 100 µM (inactive) with KM-20L2; 21.4 µM (inactive) in the assay with DMS-114; > 91.4 µM (inactive) with M19-MEL; 52 µM (inactive) in the assay on XF498; > 66.5 µM (inactive) in the assay with DLD-1. The GI50 is > 100 µM (inactive) in the assay with HOP-18, 36.2 µM (inactive) with DMS-273 and 40.6 µM (inactive) with LXFL 529.

Turning to `[N-]=[N+]=NC(c1cn(C2CC(O)C(CO)O2)c(=O)[nH]c1=O)C(I)I` (centres undefined), the GI50 was > 100 µM (inactive) in the assay on KM-20L2; > 100 µM (inactive) in the assay with DMS-114; > 100 µM (inactive) with M19-MEL; > 100 µM (inactive) in the assay on DLD-1; 2.23 µM (inactive) in the assay with HOP-18; > 100 µM (inactive) with DMS-273. The GI50 in the assay on LXFL 529 was > 100 µM (inactive).

For the compound `Cn1ncc(=S)[nH]c1=S`, the GI50 in the assay with RXF 631, in the assay with KM-20L2, in the assay with DMS-114, with M19-MEL, in the assay on XF498 and in the assay with DLD-1 was > 100 µM (inactive) each time. The results for the GI50 with HOP-18, in the assay with DMS-273 and with LXFL 529 were 47.6 µM (inactive), > 100 µM (inactive) and > 100 µM (inactive), respectively.

Consider `CCCCCn1cnc2c1S(=O)(=O)N(C)C(NC(=O)c1ccccc1)=N2`, for which the GI50 in the assay with KM-20L2, in the assay with DMS-114, in the assay with M19-MEL, with DLD-1, in the assay on DMS-273 and in the assay with LXFL 529 was > 100 µM (inactive) each time.

On to `CN(C)C(=N)NC(N)=S`, for which the GI50 with RXF 631, with KM-20L2, in the assay with DMS-114, in the assay with M19-MEL, in the assay with XF498 and in the assay with DLD-1 was > 100 µM (inactive) each time. Moreover, the GI50 with HOP-18, with DMS-273 and in the assay on LXFL 529 was > 100 µM (inactive) each time.

Consider `COc1ccc(N2C(=O)c3c(c4[nH]c5ccccc5c4c4ccc(C(C)(C)C)cc34)C2=O)cc1`, for which the GI50 in the assay on RXF 631 is 40.6 µM (inactive); in the assay with KM-20L2, > 100 µM (inactive); in the assay on DMS-114, > 100 µM (inactive); in the assay on M19-MEL, 50.9 µM (inactive); with XF498, 20.7 µM (inactive); in the assay on DLD-1, > 100 µM (inactive). The GI50 was 58.1 µM (inactive) in the assay with HOP-18, 41.3 µM (inactive) in the assay with DMS-273 and 78.5 µM (inactive) with LXFL 529.

As for `Cc1ccc(S(=O)(=O)NNS(C)(=O)=O)cc1`, the GI50 in the assay on KM-20L2, in the assay on DMS-114, with M19-MEL, in the assay with DLD-1, with DMS-273 and with LXFL 529 was > 100 µM (inactive) each time.

Turning to `CCOc1ccccc1NC(=O)CCc1n[nH]c(=S)o1`, the GI50 in the assay on KM-20L2, in the assay on M19-MEL, in the assay on XF498, in the assay with DLD-1, with DMS-273 and in the assay with LXFL 529 was > 100 µM (inactive) in each case.

As to `Cc1cccc(-c2nnc(S)[nH]2)c1`, the GI50 in the assay with RXF 631, in the assay on KM-20L2, with M19-MEL, in the assay with XF498, with DLD-1 and in the assay on HOP-18 was > 100 µM (inactive) in each case. In addition, the GI50 in the assay with DMS-273 and in the assay on LXFL 529 was > 100 µM (inactive) throughout.

Take `Nc1nc(SCc2ccc([N+](=O)[O-])cc2)nc2c1ncn2C1OC(CO)C(O)C1O` (centres undefined): the GI50 in the assay on KM-20L2, in the assay on DMS-114, in the assay with M19-MEL, with XF498, in the assay on DLD-1 and in the assay on DMS-273 was > 100 µM (inactive) throughout. Further, the GI50 in the assay on LXFL 529 was 78.5 µM (inactive).

In the case of `CC(=O)c1cccc(NC(=O)C(=O)NNc2nnc(S)n2N)c1`, the GI50 with RXF 631 is 3.01 µM (inactive); with KM-20L2, 14.1 µM (inactive); in the assay on DMS-114 it was 1.85 µM (inactive); with M19-MEL, 0.805 µM (active); in the assay on XF498, 12.7 µM (inactive); in the assay on DLD-1 it was 7.38 µM (inactive). For the same compound, the GI50 was 11.8 µM (inactive) in the assay on HOP-18, 5.55 µM (inactive) in the assay with DMS-273 and 10.7 µM (inactive) in the assay on LXFL 529.

Consider `Cc1cccc(C)c1NC(=O)C(=O)Cc1nc2ccccc2s1`, for which the GI50 in the assay with KM-20L2, in the assay on DMS-114, in the assay on M19-MEL, with XF498, in the assay with DLD-1 and with DMS-273 was > 100 µM (inactive) in each case. Besides, the GI50 with LXFL 529 was > 100 µM (inactive).

Consider `C[C@]12CCC(=O)C=C1CC[C@@H]1C2CC[C@@]2(C)C1CC[C@@H]2OC(=O)C12OC1CCC2=O` (some centres undefined), for which the GI50 with KM-20L2 was 18.7 µM (inactive); in the assay on DMS-114 it was 17.7 µM (inactive); in the assay with M19-MEL it was 16.7 µM (inactive); in the assay on XF498, 13.9 µM (inactive); with HOP-18 it was 17.4 µM (inactive); in the assay on DMS-273, 15.5 µM (inactive). Further, the GI50 in the assay with LXFL 529 is 14.8 µM (inactive).

Consider `CC(c1ccccc1)N1CC(C)(c2ccccc2)N(O)C(c2ccccc2)C1C` (centres undefined), for which the GI50 is 12.6 µM (inactive) in the assay on RXF 631; 4.39 µM (inactive) in the assay on KM-20L2; 5.33 µM (inactive) with DMS-114; > 10 µM (inactive) in the assay with M19-MEL; 23.7 µM (inactive) in the assay with DLD-1; 17.7 µM (inactive) in the assay on HOP-18. Also, the GI50 in the assay on DMS-273 is 7.93 µM (inactive); in the assay with LXFL 529 it was 9.06 µM (inactive).

As for `O=c1[nH]c2c(nc1NC13CC4CC(CC(C4)C1)C3)c(=O)oc1ccccc12`, the GI50 is > 100 µM (inactive) in the assay on KM-20L2; > 100 µM (inactive) with DMS-114; > 100 µM (inactive) in the assay on M19-MEL; > 100 µM (inactive) in the assay with XF498; 23.8 µM (inactive) in the assay on DLD-1; 62.1 µM (inactive) in the assay with DMS-273. Moreover, the GI50 in the assay with LXFL 529 is > 100 µM (inactive).

As to `CCOC(=O)C1Oc2ccc([N+](=O)[O-])cc2C1(C)O` (centres undefined), the GI50 in the assay with DMS-114, in the assay on M19-MEL, in the assay with XF498, with DLD-1, in the assay with DMS-273 and in the assay on LXFL 529 was > 100 µM (inactive) throughout.

Regarding `C=CCOC1=C2CC[C@H](O)[C@@]2(C)CCC1=O`, the GI50 in the assay with KM-20L2, in the assay on DMS-114, in the assay with M19-MEL, with DLD-1, in the assay on HOP-18 and with DMS-273 was > 100 µM (inactive) throughout. Further, in the assay on LXFL 529, the GI50 was > 100 µM (inactive).

Regarding `O=S1(=O)c2ccccc2N=C(c2ccccc2Cl)CC1c1ccc(F)cc1` (centres undefined), the GI50 in the assay with KM-20L2 was 18.6 µM (inactive); in the assay with DMS-114, 19.7 µM (inactive); in the assay on M19-MEL, 17.7 µM (inactive); with XF498, 15.6 µM (inactive); with DLD-1, 15.2 µM (inactive); in the assay with HOP-18, 9.62 µM (inactive). The GI50 with DMS-273 was 22.3 µM (inactive); with LXFL 529 it was 17.8 µM (inactive).

For the compound `Cc1noc(C)c1C1=CCCCc2ccccc21`, the GI50 in the assay with KM-20L2 was > 100 µM (inactive); in the assay with DMS-114, > 100 µM (inactive); with M19-MEL, 90.2 µM (inactive); in the assay on DLD-1, > 100 µM (inactive); in the assay on HOP-18, > 100 µM (inactive); in the assay with DMS-273, > 100 µM (inactive). In addition, the GI50 with LXFL 529 is 85.5 µM (inactive).

For the compound `CC1=Nn2c(nnc2-c2ccccc2Cl)NC(C)(C)C1`, the GI50 is > 100 µM (inactive) in the assay on KM-20L2; > 100 µM (inactive) with M19-MEL; > 100 µM (inactive) in the assay with XF498; 54.7 µM (inactive) in the assay with DLD-1; > 100 µM (inactive) in the assay with DMS-273; 63.7 µM (inactive) with LXFL 529.

(Values after ChEMBL document CHEMBL1201862, “PubChem BioAssay data set” (2004).)
